Legend:
[1] = biological target: T1, human TRPV1 receptor (hTRPV1) (Homo sapiens, UniProt Q8NER1); assay: Capsaicin activation assay (Ca2+ influx, FLIPR); format: cell-based; conditions: 0.05 μM capsaicin, 1321N1 cells expressing hTRPV1
T1 construct: expressed in transfected cells
Experimental: Dulbecco's modified Eagle medium (D-MEM) (with 4.5 mg/mL glucose) and fetal bovine serum were obtained from Hyclone Laboratories, Inc. (Logan, Utah). Dulbecco's phosphate-buffered saline (D-PBS) (with 1 mg/mL glucose and 3.6 mg/l Na pyruvate, without phenol red), L-glutamine, hygromycin B, and Lipofectamine® were obtained from Life Technologies (Grand Island, N.Y.). G418 sulfate was obtained from Calbiochem-Novabiochem Corp. (San Diego, Calif.). Capsaicin (8-methyl-N-vanillyl-6-nonenamide) was obtained from Sigma-Aldrich, Co. (St. Louis, Mo.). Fluo-4 AM (N-[4-[6-[(acetyloxy)methoxy]-2,7-difluoro-3-oxo-3H-xanthen-9-yl]-2-[2-[2-[bis[2-[(acetyloxy)methoxy]-2-oxyethyl]amino]-5-methyl-phenoxy]ethoxy]phenyl]-N-[2-[(acetyloxy)methoxy]-2-oxyethyl]-glycine, (acetyloxy)methyl ester) was purchased from Molecular Probes (Eugene, Oreg.).
The cDNAs for the human TRPV1 receptor (hTRPV1) were isolated by reverse transcriptase-polymerase chain reaction (RT-PCR) from human small intestine poly A+RNA supplied by Clontech (Palo Alto, Calif.) using primers designed surrounding the initiation and termination codons identical to the published sequences (Hayes et al. Pain 2000, 88, 205-215). The resulting cDNA PCR products were subcloned into pCIneo mammalian expression vector (Promega) and fully sequenced using fluorescent dye-terminator reagents (Prism, Perkin-Elmer Applied Biosystems Division) and a Perkin-Elmer Applied Biosystems Model 373 DNA sequencer or Model 310 genetic analyzer. Expression plasmids encoding the hTRPV1 cDNA were transfected individually into 1321N1 human astrocytoma cells using Lipofectamine®. Forty-eight hours after transfection, the neomycin-resistant cells were selected with growth medium containing 800 μg/mL Geneticin (Gibco BRL). Surviving individual colonies were isolated and screened for TRPV1 receptor activity. Cells expressing recombinant homomeric TRPV1 receptors were maintained at 37° C. in D-MEM containing 4 mM L-glutamine, 300 μg/mL G418 (Cal-biochem) and 10% fetal bovine serum under a humidified 5% CO2 atmosphere.
The functional activity of compounds at the TRPV1 receptor was determined with a Ca^2+ influx assay and measurement of intracellular Ca^2+ levels ([Ca^2+]i). All compounds were tested over an 11-point half-log concentration range. Compound solutions were prepared in D-PBS (4× final concentration), and diluted serially across 96-well v-bottom tissue culture plates using a Biomek 2000 robotic automation workstation (Beckman-Coulter, Inc., Fullerton, Calif.). A 0.2 μM solution of the TRPV1 agonist capsaicin was also prepared in D-PBS. The fluorescent Ca^2+ chelating dye Fluo-4 AM was used as an indicator of the relative levels of [Ca^2+]i in a 96-well format using a Fluorescence Imaging Plate Reader (FLIPR) (Molecular Devices, Sunnyvale, Calif.). Cells were grown to confluency in 96-well black-walled tissue culture plates. Then, prior to the assay, the cells were loaded with 100 μL per well of Fluo-4 AM (2 μM, in D-PBS) for 1-2 hours at 23° C. Washing of the cells was performed to remove extracellular Fluo-4 AM (2×1 mL D-PBS per well), and afterward, the cells were placed in the reading chamber of the FLIPR instrument. 50 μL of the compound solutions were added to the cells at the 10 second time mark of the experimental run. Then, after a 3-minute time delay, 50 μL of the capsaicin solution was added at the, 190 second time mark (0.05 μM final concentration)(final volume=200 μL) to challenge the TRPV1 receptor. Time length of the experimental run was 240 seconds. Fluorescence readings were made at 1 to 5 second intervals over the course of the experimental run. The peak increase in relative fluorescence units (minus baseline) was calculated from the 190 second time mark to the end of the experimental run, and expressed as a percentage of the 0.05 μM capsaicin (control) response. […]

human TRPV1 = biological target: T2, human TRPV1 (Homo sapiens, UniProt Q8NER1); assay: Acid activation assay - ratiometric calcium imaging of capsaicin- or acid-induced responses; format: cell-based; conditions: Example 30 at 3 μM, HEK293-F cells expressing human TRPV1, FIG. 1; for block of TRPV1-mediated increase in intracellular calcium concentration in response to capsaicin: capsaicin 1 μM; for block of TRPV1-mediated increase in intracellular calcium concentration in response to acid: pH 5.5
T2 construct: expressed in transfected cells; host or cells: HEK293-F cells, transient transfection
Experimental: The differential effects of TRPV1 antagonists on capsaicin- or acid-induced responses were verified by ratiometric calcium imaging. Transiently transfected HEK293-F cells expressing human TRPV1 were incubated with 5 μM Fura-2AM for 30 minutes at 37° C. Intracellular calcium concentration was measured on an imaging system consisting of the X-Cite™ 120 Fluorescence Illumination System (EXFO) and a Digital Camera (C4742-95, Hamamatsu Photonics) connected to an Olympus 1×71 microscope. Through the control of Slide Book 4.2 software, fluorescence was measured during excitation at 340 and 380 nm; the ratio of the fluorescence at both excitation wavelengths (F340/F380) was monitored. D-PBS, pH 7.4 (Invitrogen, catalog no. 14287) was used as the extracellular solution. Acidic buffer was prepared by titrating D-PBS, pH 7.4 with 7 N HCl to pH 5.5. Agonists and antagonists were prepared in the pH 7.4 or 5.5 solutions. Rapid solution switch was achieved by using a ValveLink system. […] Over the 2100-second time course, the cells were continuously perfused with D-PBS, pH7.4 or challenged sequentially with solutions containing Example 30 (3 μM), Example 30 (3 μM) plus capsaicin (1 μM), Example 30 (3 μM) plus acid (pH 5.5), acid (pH 5.5) alone, or capsaicin (1 μM) alone. The black bars above the traces designate addition and duration of solution applications. Spaces between horizontal bars represent periods in which cells were perfused with D-PBS, pH 7.4.

[2] = Rat telemetry protocol (core body temperature); format: in vivo; conditions: core body temperature of rats at one hour post dosing (100 μmol/kg, p.o.), relative to vehicle
Experimental: Male, Sprague Dawley rats, 225-250 grams were anesthetized with Sevoflurane (Abbott Laboratories). Rats were placed on a heating pad and covered with a sterile surgical drape. A ventral midline abdominal incision was made and sterile cotton tip applicators were used to gently move internal tissue and expose the abdominal aorta for implantation of the telemetry catheter (Data Sciences International; TL11M2-050-PXT). Blood flow was temporarily stopped to the lower extremities (5-7 min) with Diffenbach clamps to allow the insertion of the telemetry catheter into the abdominal aorta. Once inserted, a sterile cellulose patch was placed over the catheter/aorta and secured using a small amount of tissue adhesive (Vetbond, 3M). Once catheter placement was complete, the clamps were removed and blood flow was restored to the lower extremities. The transmitter was placed in the intraperitoneal cavity. The transmitter suture rib was sewn into the abdominal sutures to secure it in place. The skin was closed using sterile wound clips and the animal removed from Sevoflurane. Buprenex ([…] s.c.; Phoenix) was administered for post-operative analgesia. Animals were maintained on a heating pad until ambulatory, and then individually housed with food and water ad lib. Surgical staples were removed after 7-10 days post-implantation. Rats were allowed a 2-week post-surgical recovery period before treatment with test compound. Oral dosing (p.o.) was at time zero, with rats receiving a single dose of vehicle (10% EtOH, 20% Tween-80, 70% PEG-400) or a 100 μmol/kg dose of compound dissolved in vehicle. Temperature measurements were recorded every 15 minutes for the duration of the study (24 hours).
The term “core body temperature” as used herein, means the temperature measured in the intraperitoneal cavity.

T2 sequence (Q8NER1 whole entry): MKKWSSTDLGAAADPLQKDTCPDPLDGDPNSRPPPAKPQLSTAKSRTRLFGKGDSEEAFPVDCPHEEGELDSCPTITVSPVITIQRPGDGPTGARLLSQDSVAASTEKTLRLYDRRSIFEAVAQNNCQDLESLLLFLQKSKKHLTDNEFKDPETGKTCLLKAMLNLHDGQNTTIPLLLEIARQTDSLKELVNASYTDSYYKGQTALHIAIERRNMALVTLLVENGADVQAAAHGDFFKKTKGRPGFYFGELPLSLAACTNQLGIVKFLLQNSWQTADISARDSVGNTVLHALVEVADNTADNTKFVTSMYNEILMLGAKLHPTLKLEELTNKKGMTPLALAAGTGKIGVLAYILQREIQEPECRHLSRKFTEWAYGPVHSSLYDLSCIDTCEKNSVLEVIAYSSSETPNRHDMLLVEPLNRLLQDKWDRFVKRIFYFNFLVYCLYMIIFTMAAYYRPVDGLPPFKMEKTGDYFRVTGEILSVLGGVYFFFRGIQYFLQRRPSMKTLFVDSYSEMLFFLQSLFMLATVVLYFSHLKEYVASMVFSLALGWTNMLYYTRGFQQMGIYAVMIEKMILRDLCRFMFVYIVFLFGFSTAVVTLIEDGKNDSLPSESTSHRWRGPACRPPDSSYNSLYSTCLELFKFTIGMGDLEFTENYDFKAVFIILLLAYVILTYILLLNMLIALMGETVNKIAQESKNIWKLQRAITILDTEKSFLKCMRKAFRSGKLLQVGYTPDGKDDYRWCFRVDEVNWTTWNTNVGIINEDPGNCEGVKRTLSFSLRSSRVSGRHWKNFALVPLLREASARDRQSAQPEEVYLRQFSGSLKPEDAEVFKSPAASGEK
T1 sequence (Q8NER1 whole entry): as above

Row | Compound | IC50 [1] | block of TRPV1-mediated increase in intracellular calcium concentration in response to capsaicin (human TRPV1) | block of TRPV1-mediated increase in intracellular calcium concentration in response to acid (human TRPV1) | Δ Temp [2]
1 | CC1(C)C[C@@H](NC(=O)Nc2cccc3c2C[C@H](O)CC3)c2ccc(F)cc2O1 [Example 30, N-[(4R)-7-fluoro-2,2-dimethyl-3,4-dihydro-2H-chromen-4-yl]-N′-[(7R)-7-hydroxy-5,6,7,8-tetrahydronaphthalen-1-yl]urea] | 17 nM | completely blocked | completely blocked | 1.1 °C
2 | CC1(C)C[C@@H](NC(=O)Nc2cccc3c2C[C@@H](O)CC3)c2ccc(F)cc2O1 [Example 31, N-[(4R)-7-fluoro-2,2-dimethyl-3,4-dihydro-2H-chromen-4-yl]-N′-[(7S)-7-hydroxy-5,6,7,8-tetrahydronaphthalen-1-yl]urea] | 20 nM | completely blocked | completely blocked | 1.0 °C
3 | O=C(Nc1cccc2c1C[C@H](O)CC2)N[C@@H]1CC(CF)(CF)Oc2cc(Cl)ccc21 [Example 105, N-[(4R)-7-chloro-2,2-bis(fluoromethyl)-3,4-dihydro-2H-chromen-4-yl]-N′-[(7R)-7-hydroxy-5,6,7,8-tetrahydronaphthalen-1-yl]urea] | 35 nM | – | – | 1.1 °C
4 | O=C(Nc1cccc2c1C[C@@H](O)CC2)N[C@@H]1CC(CF)(CF)Oc2c(F)cccc21 [Example 107, N-[(4R)-8-fluoro-2,2-bis(fluoromethyl)-3,4-dihydro-2H-chromen-4-yl]-N′-[(7S)-7-hydroxy-5,6,7,8-tetrahydronaphthalen-1-yl]urea] | 53 nM | – | – | 0.9 °C
5 | CC1(C)C[C@@H](NC(=O)Nc2cccc3c2C[C@H](O)CC3)c2ccc(F)c(Cl)c2O1 [Example 108, N-[(4R)-8-chloro-7-fluoro-2,2-dimethyl-3,4-dihydro-2H-chromen-4-yl]-N′-[(7R)-7-hydroxy-5,6,7,8-tetrahydronaphthalen-1-yl]urea] | 21 nM | – | – | 1.2 °C
6 | CC1(C)C[C@@H](NC(=O)Nc2cccc3c2C[C@@H](O)CC3)c2ccc(F)c(Cl)c2O1 [Example 109, N-[(4R)-8-chloro-7-fluoro-2,2-dimethyl-3,4-dihydro-2H-chromen-4-yl]-N′-[(7S)-7-hydroxy-5,6,7,8-tetrahydronaphthalen-1-yl]urea] | 21 nM | – | – | 1.2 °C
7 | O=C(Nc1cccc2c1C[C@@H](O)CC2)N[C@@H]1CC(CF)(CF)Oc2cc(C(F)(F)F)ccc21 [Example 112, N-[(4R)-2,2-bis(fluoromethyl)-7-(trifluoromethyl)-3,4-dihydro-2H-chromen-4-yl]-N′-[(7S)-7-hydroxy-5,6,7,8-tetrahydronaphthalen-1-yl]urea] | 34 nM | – | – | 1.4 °C
8 | CC1(C)C[C@@H](NC(=O)Nc2cccc3c2C[C@@H](O)CC3)c2ccc(F)c(F)c2O1 [Example 114, N-[(4R)-7,8-difluoro-2,2-dimethyl-3,4-dihydro-2H-chromen-4-yl]-N′-[(7S)-7-hydroxy-5,6,7,8-tetrahydronaphthalen-1-yl]urea] | 15 nM | – | – | 0.6 °C
9 | CC1(C)C[C@@H](NC(=O)Nc2cccc3c2C[C@H](O)CC3)c2ccc(OC(F)(F)F)cc2O1 [Example 115, N-[(4R)-2,2-dimethyl-7-(trifluoromethoxy)-3,4-dihydro-2H-chromen-4-yl]-N′-[(7R)-7-hydroxy-5,6,7,8-tetrahydronaphthalen-1-yl]urea] | 23 nM | – | – | 1.2 °C
10 | CC1(C)C[C@@H](NC(=O)Nc2cccc3c2C[C@@H](O)CC3)c2ccc(OC(F)(F)F)cc2O1 [Example 116, N-[(4R)-2,2-dimethyl-7-(trifluoromethoxy)-3,4-dihydro-2H-chromen-4-yl]-N′-[(7S)-7-hydroxy-5,6,7,8-tetrahydronaphthalen-1-yl]urea] | 13 nM | – | – | 1.1 °C
11 | Cc1cc2c(NC(=O)NC3CC(C)(C)Oc4c3ccc(N3CCCCC3)c4F)cccc2cn1 (centres unmarked) [Example 117, N-(8-fluoro-2,2-dimethyl-7-piperidin-1-yl-3,4-dihydro-2H-chromen-4-yl)-N′-(3-methylisoquinolin-5-yl)urea] | 82 nM | – | – | 1.0 °C
12 | Cc1cc2c(NC(=O)N[C@@H]3CC(C)(C)Oc4cc(C(F)(F)F)ccc43)c(F)ccc2cn1 [Example 125, N-[(4R)-2,2-dimethyl-7-(trifluoromethyl)-3,4-dihydro-2H-chromen-4-yl]-N′-(6-fluoro-3-methylisoquinolin-5-yl)urea] | 35 nM | – | – | 0.5 °C
13 | Cc1cc2c(NC(=O)N[C@@H]3C[C@@](C)(CF)Oc4cc(C(F)(F)F)ccc43)cccc2cn1 [Example 129, N-[(2S,4R)-2-(fluoromethyl)-2-methyl-7-(trifluoromethyl)-3,4-dihydro-2H-chromen-4-yl]-N′-(3-methylisoquinolin-5-yl)urea] | 15 nM | – | – | 0.7 °C
14 | N-[(4R)-8-tert-butyl-3,4-dihydro-2H-chromen-4-yl]-N-(3-methylisoquinolin-5-yl)urea, hydrochloride salt [Example 100] | 7 nM | – | – | 1.7 °C

Reference: patent publication US8609692B2, “TRPV1 antagonists” (AbbVie Inc., priority 2008, dated 2013)
